Data as given in US20140378460A1, “COMPOSITIONS AND METHODS FOR TREATING NEURODEGENERATIVE DISEASE” (COGNITION THERAPEUTICS, INC., priority 2011, published 2014).
Like-named read-outs stand apart in the source and are kept apart here.

Columns and labels:
[1] = system: Abeta oligomer-induced membrane trafficking deficits in primary hippocampal neurons; assay: Membrane trafficking/exocytosis (MTT) assay; assay type: cell-based, rat; details: for IC50: read-out: Membrane trafficking IC50
Procedure: The methods used to generate the results were as follows in the Membrane Trafficking/Exocytosis (MTT) assay.
Primary hippocampal neurons from E18 Sprague-Dawley rat embryos were plated at optimized concentrations in 384 well plates in NB media (Invitrogen). Neurons were maintained in cultures for 3 weeks, with twice weekly feeding of NB media with N2 supplement (Invitrogen).
A test compound was added to cells at concentrations ranging from 100 uM to 0.001 nM followed by addition of vehicle or Abeta oligomer preparations (3 μM total Abeta protein concentration), and incubated for 1 to 24 hr at 37° C. in 5% CO2. MTT reagent (3-(4,5-dimethylthizaol-2-yl)-2,5diphenyl tetrazolium bromide) (Roche Molecular Biochemicals) was reconstituted in phosphate buffered saline to 5 mg/mL. 10 μl, of MTT labeling reagent is added to each well and incubated at 37° C. for 1 h, then imaged. Exocytosis was assessed by automated microscopy and image processing to quantify the amount of endocytosed and exocytosed formazan.
Each assay plate was formatted so that compounds are tested with and without Abeta oligomer on each plate.

sigma-2 receptor = target: T1, sigma-2 receptor (Rattus norvegicus, UniProt Q5U3Y7); set-up: other: known prior art compounds, published studies; details: cited from earlier work
T1 sequence (Q5U3Y7 1-176): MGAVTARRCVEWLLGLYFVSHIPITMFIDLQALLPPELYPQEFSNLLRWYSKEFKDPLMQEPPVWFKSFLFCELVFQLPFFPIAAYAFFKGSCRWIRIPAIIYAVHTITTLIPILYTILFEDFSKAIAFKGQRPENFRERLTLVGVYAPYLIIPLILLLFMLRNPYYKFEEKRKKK

Sigma-1 receptors [2] = target: T2, Sigma-1 receptors (UniProt Q60492); details: cited from earlier work
T2 construct: other: known prior art compounds, published studies

Sigma-1 receptors [3] = details: known prior art compounds; cited from earlier work
[4] = system: Abeta oligomer-induced synapse loss in primary hippocampal neurons; assay: Synapse loss assay; assay type: cell-based, rat
Procedure: In this assay, Abeta oligomers were brought in contact with mature primary neurons in culture and their binding was determined by immunohistochemistry (anti-Abeta antibody) and quantified by image processing. The amount of Abeta in neuronal dendrites is assessed by counting the number of labeled puncta on the neuritis. […] This labeling is associated with synapses, co-localizing with the post-synaptic scaffold protein PSD-95 (Lacor et al., '04). […] The number of synapses can also be quantified in this assay by immunofluorochemistry. Similar procedures for binding assays can be found in the literature. […] Review.
Primary hippocampal neuronal culture was established as in the membrane trafficking assay above. […] Pretreatment with compounds to be tested lasted for 1 hr and addition of Abeta oligomers or no oligomer (vehicle alone) in a final concentration of 70 ul was followed by incubation for an additional 23 hrs.
The plates were then washed 3× with PBS for 5 min each. The plates were blocked at RT for 1 hr in 5% goat serum and 0.5% Triton X-100 in PBS. […] Primary antibodies were incubated overnight at 4° C. The plates were then washed 3× with PBS for 5 min each. […] Secondary antibodies were incubated at RT for 1 hr. The plates were washed once with PBS. DAPI (4′,6-diamidino-2-phenylindole, Invitrogen) was then applied at 0.03 ug/ul and incubated at RT for 5 min, then washed with PBS.

[5] = system: caspase-3 in SKOV-3 human ovarian cancer cells; assay: Caspase-3 activity in tumor cells; assay type: cell-based
[6] = system: SKOV-3 human ovarian cancer cell line; assay: MTS tumor cell viability assay; assay type: cell-based; details: for Action: by EC50 relative to siramesine
Procedure: The cytotoxicity of compounds shown below was determined using the CellTiter96 Aqueous One Solution Assay (Promega, Madison, Wis.). […] The plate was read at 490 nm in a Victor3 plate reader (PerkinElmer Life and Analytical Sciences, Shelton, Conn.). The EC^50 value, defined as the concentration of the sigma ligand required to inhibit cell viability by 50% relative to untreated cells, was determined from the dose response curve for each cell line.

[7] = system: caspase-3 in neuronal cultures; assay: Caspase-3 activity in neurons; assay type: cell-based
[8] = Rattus norvegicus, Hippocampal neuron, Table 11C, known prior art compounds, read-out: Inhibition Abeta oligomer-induced Membrane Trafficking EC50
[9] = known prior art compounds, published studies, read-out: Sigma 2 Binding Ki
[10] = known prior art compounds, published studies, read-out: Sigma 1 Binding Ki
[11] = Table 11C, read-out: S2 binding Ki
[12] = Table 11D, read-out: Sigma-2 Receptor Ki
[13] = Table 11C, read-out: S1 binding Ki
[14] = Table 11D, read-out: Sigma-1 Receptor Ki
[15] = Table 11C, known prior art compounds, read-out: Inhibition Abeta oligomer-induced Membrane Trafficking EC50

CNC(C)CCc1ccc(O)c(OC)c1 (centres unmarked) [Entry 5]
EC50 ([1]; scaffold drawing 245, R' varied, read-out: Membrane Trafficking EC50): 30 µM

CC(C(O)c1ccc(O)cc1)N1CCC(Cc2ccccc2)CC1 (centres unmarked) [Ifenprodil]
Max Inhibition of Abeta (%) [1]: 38% | EC50 [1, 8]: > 20 µM | Functional Neuronal Phenotype ([1]; Table 11C): Inactive

CC12CC3CC(C)(C1)CC(N)(C3)C2 [Memantine, memantine]
inhibition at 28 µM ([1]; Rattus norvegicus, Hippocampal neuron, 28 μM, read-out: Inhibition of oligomer effects): 50%

CCCN(CCC)CCc1ccc(OC)c(OCCc2ccccc2)c1 [NE100]
Ki (sigma-2 receptor; [9]): 170 nM | Ki (Sigma-1 receptors [2]; [10]): 1.1 nM | Sigma 1 (Type of Activity) (Sigma-1 receptors [3]): (antagonist)

CCCN(CCC)CCc1ccc(OC)c(OCCc2ccccc2)c1 [NE 100]
Ki (sigma-2 receptor; [11]): 170 nM | Ki (sigma-2 receptor; [12]): 170 nM | Ki (Sigma-1 receptors [2]; [13]): 1.1 nM | Ki (Sigma-1 receptors [2]; [14]): 1.1 nM | Max Inhibition of Abeta (%) [1]: 98% | Functional Neuronal Phenotype ([1]; Table 11C): Antagonist | EC50 [1, 15]: 1.3 µM | Functional Neuronal Phenotype ([1]; Table 11D): Antagonist | IC50 ([1]; Table 11D): 1300 nM

CCCN(CCC)CCc1ccc(OC)c(OCCc2ccccc2)c1 [NE-100]
Effect on Abeta oligomer-induced synapse loss [4]: completely eliminated synapse loss

COc1cccc2c1CCCC2CCCN1CCN(C2CCCCC2)CC1 (centres unmarked) [PB 28]
Ki (sigma-2 receptor; [11]): 0.8 nM | Ki (sigma-2 receptor; [12]): 0.8 nM | Ki (sigma-2 receptor; [9]): 0.8 nM | Max Inhibition of Abeta (%) [1]: 84% | Functional Neuronal Phenotype ([1]; Table 11C): Antagonist | EC50 [1, 15]: 1 µM | Functional Neuronal Phenotype ([1]; Table 11D): Antagonist | IC50 ([1]; Table 11D): 1000 nM

c1ccc(CCCCN2CCC(c3ccccc3)CC2)cc1 [PPBP]
Ki (Sigma-1 receptors [2]; [13]): 0.8 nM | Ki (Sigma-1 receptors [2]; [14]): 0.8 nM | Ki (Sigma-1 receptors [2]; [10]): 0.8 nM | Sigma 1 (Type of Activity) (Sigma-1 receptors [3]): (agonist) | Functional Neuronal Phenotype ([1]; Table 11C): Antagonist | EC50 [1, 15]: 10.9 µM | Functional Neuronal Phenotype ([1]; Table 11D): Antagonist | IC50 ([1]; Table 11D): 10900 nM

O=C(OCCN1CCOCC1)C1(c2ccccc2)CCCCC1 [PRE-84]
Ki (sigma-2 receptor; [9]): 13100 nM | Sigma 1 (Type of Activity) (Sigma-1 receptors [3]): (agonist) | Activity in membrane trafficking assay [1]: inactive | Max Inhibition of Abeta (%) [1]: 38% | Functional Neuronal Phenotype ([1]; Table 11C): Inactive | EC50 [1, 15]: > 30 µM

COc1cc2c(cc1OC)CN(CCCCNC(=O)c1cc(C)ccc1OC)CC2 [RHM-1, N-[4-(3,4-dihydro-6,7-dimethoxyisoquinolin-2(1H)-yl)butyl]-2-methoxy-5-methylbenzamide]
Block of SV-119-induced caspase-3 activation in tumor cells [5]: do not block caspase-3 activation | Caspase-3 activity induced in tumor cells [5]: did not induce caspase-3 activity | Nuclear morphology / nuclear intensity in neurons (neuronal cultures): did not decrease nuclear intensity | Action [6]: Antagonist | Caspase-3 activity induced in neurons [7]: did not induce caspase-3 activity | Effect on Abeta oligomer trafficking deficits over the concentrations tested [1]: blocks oligomer-induced trafficking deficits at all concentrations tested

C=CCN1CCC2(C)c3cc(O)ccc3CC1C2C (centres unmarked) [SFK10047]
Ki (sigma-2 receptor; [9]): 39700 nM | Sigma 1 (Type of Activity) (Sigma-1 receptors [3]): (agonist)

C=CCN1CC[C@]2(C)c3cc(O)ccc3C[C@H]1[C@H]2C [SKF 10,047]
Ki (sigma-2 receptor; [11]): > 10000 nM | Functional Neuronal Phenotype ([1]; Table 11C): Inactive | EC50 [1, 15]: > 30 µM

CN[C@H]1CC[C@@H](c2ccc(Cl)c(Cl)c2)c2ccccc21 [Sertraline]
Sigma 1 (Type of Activity) (Sigma-1 receptors [3]): (antagonist)

COc1ccc(C)cc1NC(=O)OC1CC2CCCC(C1)N2Cc1ccc(N(C)C)cc1 (centres unmarked) [WC-26]
Ki (sigma-2 receptor; read-out: S2 binding Ki, Table 11C): 3 nM | Nuclear morphology / nuclear intensity in neurons (neuronal cultures): caused significant abnormal nuclear morphology | IC50 ([6]; Homo sapiens, SK-OV-3, tumor cell viability, 48 hrs): 65.6 ± 6.3 µM | Action [6]: Partial agonist | Ki (Sigma-1 receptors [2]; [13]): 1400 nM | EC50 [1, 8]: 1.6 µM | Functional Neuronal Phenotype ([1]; Table 11C): Agonist
